Experimental data as given in patent US4351948A, “Imidazole hydrazone derivatives” (priority 1980, dated 1982).
Counter-ions that a name gives are not always drawn. Like-named read-outs stand apart in the source and are kept apart here. Blank lines part the entries; values can stand above or below the compound they belong to.

Assays:
C. albicans [1] = test: Vaginal candida infection in rats, oral or topical treatment; format: in vivo
Description: Effect of oral or topical administration of HC274 and ketoconazole on vaginal candida infection in rats. Clearance of C. albicans from rat vagina following oral or topical treatment (as percentage of control).
Topical treatment: 1% solution in polyethylene glycol administrated twice daily for 3 days.
Oral treatment: Once daily for 3 days.

[2] = system: Trichophyton mentagrophytes; test: Experimental Trichophyton mentagrophytes infection in guinea pigs; format: in vivo
Description: Effect of oral or topical administration of HC274, HC344, Clotrimazole, and Ketoconazole on experimental Trichophyton mentagrophytes infection in guinea pigs.
*Based on degree of hair loss, erythema, desquamation, Max. = 100
Treatments administered in Carbopol® gel, once daily days 5-10.

candida albicans = test: Oral treatment: recovery of viable candida albicans from the kidneys of infected mice; format: in vivo
Description: Effect of oral treatment with HC274, HC316, HC390, HC415 and Ketoconazole on the recovery of viable candida albicans from the kidneys of infected mice.

[3] = system: platelet thromboxane generation; test: Inhibition of platelet thromboxane generation (TxB2, collagen-stimulated human platelet rich plasma); format: cell-based; conditions: 10 min, read-out: Activity IC50 (50% inhibition of TxB2 generation)
Method: The compounds used according to the invention as anti-thrombotics were tested by the following method for their ability to inhibit platelet thromboxane generation.
Human venous blood was collected from healthy male donors, who had denied any medication in the previous 14 days. Nine volumes of blood were mixed with one volume of 3.24% trisodium citrate. The citrated blood was centrifuged at 160 g for 10 mins. at 22° C. to obtain platelet rich plasma (PRP). The platelets were then counted on a Coulter counter, and the platelet count was adjusted to 200,000 per μl with plasma.
The PRP was then dispensed as aliquots into micro-Eppendorf tubes, maintained at 37° C. in a dry bath. The compounds dissolved either in saline, ethanol, or DMSO were added in duplicate to the PRP aliquots to produce final concentrations of 0.3, 3 and 30 μg/ml. When ethanol and DMSO were used as the vehicle, triplicate controls containing the same percentage of vehicle as the test compounds were made. The final concentration or organic solvent was never more than 0.1%, which in previous experiments had no effect on TxB2 generation.
Following a 10 min. incubation with test compounds or vehicle, collagen was added to produce a final concentration of 8 μg/ml. The tubes were then whirly-mixed for 15 seconds and replaced in the dry bath for a further 10 minutes, controls received saline instead of collagen. The reaction was then stopped by rapid centrifugation, 15,000 g for 3 mins. The plasma was removed and frozen at -29° C. until assayed.
Briefly, 100 μl aliquots, in tricine buffered saline+0.8% gelatin (pH 8.0) of the following were incubated together for 1 hour at 37° C.: thromboxane Tx B2 (plasma extract, spiked plasma extract or standards 20 to 20,000 pg/ml), ^3 H--TxB2 (approximately 15,000 dpm) and anti-TxB2 antiserum (0.5 μg/100 μl). The free and protein bound ^3 H--TxB2 were separated by ammonium sulphate precipitation followed by centrifugation. 300 μl of the supernatant was added to an aqueous scintillation fluid, and the radioactivity present was counted in a liquid scintillation counter. The binding of ^3 H--TxB2 in the absence of added TxB2 was approximately 55%. The least amount of TxB2 to be detected accurately in the plasma was 0.08 ng/ml. Cross reactivity with other prostaglandins is less than 0.005% except PGD2 which is 1%.
Thus plasma samples were assayed to give a rough approximation of TxB2 content. The plasma was then appropriately diluted and assayed in duplicate to give accurate values.
The amount of TxB2 generated by the collagen was calculated by subtracting mean values obtained for the saline stimulated platelets from the mean values obtained from the collagen stimulated platelets. Then the amount of TxB2 generated in the presence of each concentration of compound was expressed as a % control and dose response curves were then constructed to determine the concentration of compound which produced a 50% inhibition.

C. albicans [4] = test: Recovery of viable candida cells from the kidneys of infected mice (p.o. and i.v. treatment); format: in vivo; conditions: 25 mg/kg 1 h and 24 h after infection
Method: Mice receive 25×10^4 cells of C. albicans i.v. Treatments (25 mg/kg) administered in PEG/Dextrose 1 h and 24 h after infection. Animals sacrified 48 h after infection and kidneys excised, weighed, homogenized and decimal dilutions spread on glucose-peptone agar.

candida = test: Intravenous administration: recovery of viable candida cells from the kidneys of infected mice; format: in vivo; conditions: 25 mg/ml
[5] = topical, 1% solution in polyethylene glycol twice daily for 3 days
[6] = topical, 1% w/w in Carbopol gel once daily days 5-10, day 10 after infection
[7] = topical, 1% w/w in Carbopol gel, day 5 after infection
[8] = collagen 8 μg/ml, human PRP, 10 min. incubation, 37° C.

Compound: Clc1ccccc1C(c1ccccc1)(c1ccccc1)n1ccnc1 [Clotrimazole, 1-(2-Chlorophenyl)diphenylmethyl-1H-imidazole, reference compound]
Clearance of C. albicans from rat vagina (as percentage of control) (C. albicans [1]; [5]): 100 percentage of control
Disease rating (degree of hair loss, erythema, desquamation, Max. = 100) [2, 6]: 51.9
Disease rating (degree of hair loss, erythema, desquamation, Max. = 100) [2, 7]: 100
LD50 at 168 h (in vivo; mouse, in vivo, iv): 10 mg/kg
LD12.5 (in vivo; p.o., male mice, 7 day): 500 mg/kg

Compound: Clc1ccc(/C(Cn2ccnc2)=N/Nc2c(Cl)cccc2Cl)cc1 [HC344, (Z)-1-(4-chlorophenyl)-2-(1H-imidazol-1-yl) ethanone, 2,6-dichlorophenylhydrazone, hydrochloride]
Disease rating (degree of hair loss, erythema, desquamation, Max. = 100) [2, 6]: 24.6
Disease rating (degree of hair loss, erythema, desquamation, Max. = 100) [2, 7]: 100
LD50 at 168 h (in vivo; mouse, in vivo, ip, male mice, 7 day, read-out: LD50): 780 mg/kg
LD12.5 (in vivo; p.o., male mice, 7 day): > 1500 mg/kg

Compound: Cl.Fc1c(F)c(F)c(N/N=C(\Cn2ccnc2)c2ccc(Cl)cc2)c(F)c1F [HC415, (Z)-1-(4-chlorophenyl)-2-(1H-imidazol-1-yl)ethanone, 2,3,4,5,6-pentafluorophenylhydrazone hydrochloride]
Recovery of C.albicans (as percentage of control) (candida albicans; 5 mg/kg): 14.0 percentage of control
Recovery of C.albicans (as percentage of control) (candida albicans; 20 mg/kg): 17.2 percentage of control

Compound: O=[N+]([O-])c1ccc(NN=C(Cn2ccnc2)c2ccccc2Cl)c([N+](=O)[O-])c1 [HC 336, 1-(2-chlorophenyl)-2-(1H-imidazol-1-yl) ethanone, 2,4-dinitrophenylhydrazone, hydrochloride]
IC50 ([3]; Homo sapiens): 0.9 µM

Compound: O=[N+]([O-])c1cccc(C(Cn2ccnc2)=NNc2c(Cl)cccc2Cl)c1 [HC 402, 1-(3-nitrophenyl)-2-(1H-imidazol-1-yl)ethanone, 2,6-dichlorophenylhydrazone, hydrochloride]
IC50 ([3]; Homo sapiens): 0.7 µM

Compound: CC(=O)N1CCN(c2ccc(OCC3COC(Cn4ccnc4)(c4ccc(Cl)cc4Cl)O3)cc2)CC1 (stereo not drawn) [Ketoconazole, cis-1-Acetyl-4-[4-[[2-(2,4-dichlorophenyl)-2-(1H-imidazol-1-yl-methyl)-1,3-dioxolan-4-yl]methoxy]piperazine, reference compound]
Recovery of C.albicans (as percentage of control) (candida albicans; 5 mg/kg): 51.0 percentage of control
Recovery of C.albicans (as percentage of control) (candida albicans; 20 mg/kg): 11.7 percentage of control
Clearance of C. albicans from rat vagina (as percentage of control) (C. albicans [1]; oral, 10 mg/kg once daily for 3 days): 99.9 percentage of control
Clearance of C. albicans from rat vagina (as percentage of control) (C. albicans [1]; [5]): 99.9 percentage of control
Disease rating (degree of hair loss, erythema, desquamation, Max. = 100) ([2]; 20 mg/kg p.o., day 5 after infection): 100
Disease rating (degree of hair loss, erythema, desquamation, Max. = 100) ([2]; 20 mg/kg p.o., day 10 after infection): 63.7
Disease rating (degree of hair loss, erythema, desquamation, Max. = 100) [2, 6]: 56.4
Disease rating (degree of hair loss, erythema, desquamation, Max. = 100) [2, 7]: 100

Compound: Clc1ccc(COC(Cn2ccnc2)c2ccc(Cl)cc2Cl)c(Cl)c1 (stereo not drawn) [Miconazole, 1-[2-(2,4-Dichlorophenyl)-2-[(2,4-dichlorophenyl)methoxy]ethyl]-1H-imidazole]
No. of CFU/g kidney at 48 h (C. albicans [4]; i.v.): 9 × 10^2 CFU/g kidney
No. of CFU/g kidney at 48 h (C. albicans [4]; p.o.): 1.4 × 10^3 CFU/g kidney
LD50 at 168 h (in vivo; mouse, in vivo, iv, male mice, 7 day, read-out: LD50): 80 mg/kg
LD12.5 (in vivo; p.o., male mice, 7 day): > 500 mg/kg

Compound: Clc1ccc(C(Cn2ccnc2)OCc2ccsc2Cl)c(Cl)c1 (stereo not drawn) [Tioconazole, 1-[2-[(2-Chloro-3-thienyl)methoxy]-2-(2,4-dichlorophenyl)ethyl]-1H-imidazole]
No. of CFU/g kidney at 48 h (C. albicans [4]; i.v.): 1.2 × 10^3 CFU/g kidney
No. of CFU/g kidney at 48 h (C. albicans [4]; p.o.): 2.2 × 10^3 CFU/g kidney
CFU/g kidney (candida): 8.1 × 10^3 CFU/g kidney
CFU/g kidney, % of control (candida): 55 % of control
LD12.5 (in vivo; mouse, in vivo, po): > 500 mg/kg

Next, values leading:

IC50 [3, 8]: 4.9 µM
Compound: Clc1ccc(C(Cn2ccnc2)=NNc2ccccc2)cc1 [HC 290, 1-(4-Chlorophenyl)-2-(1H-imidazol-1-yl)ethanone, phenylhydrazone, hydrochloride]

IC50 [3, 8]: 2.7 µM
Compound: Clc1ccc(C(Cn2ccnc2)=NNc2cc(Cl)cc(Cl)c2)cc1 [HC 346, 1-(4-chlorophenyl)-2-(1H-imidazol-1-yl) ethanone, 3,5-dichlorophenylhydrazone]

IC50 [3, 8]: 3.6 µM
Compound: Clc1ccccc1C(Cn1ccnc1)=NNc1c(Cl)cccc1Cl [HC 365, 1-(2-chlorophenyl)-2-(1H-imidazol-1-yl)ethanone, 2,6-dichlorophenylhydrazone, hydrochloride]

IC50 [3, 8]: 0.8 µM
Compound: Clc1cccc(Cl)c1NN=C(Cn1ccnc1)c1ccccc1 [HC 368, 1-phenyl-2-(1H-imidazol-1-yl)ethanone, 2,6-dichlorophenylhydrazone, hydrochloride]

IC50 [3, 8]: 2.7 µM
Compound: Clc1ccc(C(Cn2ccnc2)=NNc2c(Cl)cccc2Cl)c(Cl)c1 [HC 377, 1-(2,4-dichlorophenyl)-2-(1H-imidazol-1-yl)ethanone, 2,6-dichlorophenylhydrazone, hydrochloride]

IC50 [3, 8]: 13.8 µM
Compound: N#Cc1ccc(C(Cn2ccnc2)=NNc2c(Cl)cccc2Cl)cc1 [HC 416, 1-(4-cyanophenyl)-2-(1H-imidazol-1-yl)ethanone, 2,6-dichlorophenylhydrazone, hydrochloride]

IC50 [3, 8]: 20.9 µM
Compound: FC(F)(F)c1ccccc1C(Cn1ccnc1)=NNc1c(Cl)cccc1Cl [HC 418, 1-(2-trifluoromethylphenyl)-2-(1H-imidazol-1-yl)ethanone, 2,6-dichlorophenylhydrazone, hydrochloride]

IC50 [3, 8]: 5.5 µM
Compound: Fc1ccccc1C(Cn1ccnc1)=NNc1ccc(Cl)cc1Cl [HC 426, 1-(2-fluorophenyl)-2-(1H-imidazol-1-yl)ethanone, 2,4-dichlorophenylhydrazone, hydrochloride]

IC50 [3, 8]: > 80 µM
Compound: Clc1ccc(/C(Cn2ccnc2)=N\Nc2ccccc2Cl)cc1 [HC 500, (E)-1-(4-chlorophenyl)-2-(1H-imidazol-1-yl)ethanone, 2-chlorophenylhydrazone, hydrochloride]
